Measurements from PMC10244669, “Virtual screening–based discovery of AI-2 quorum sensing inhibitors that interact with an allosteric hydrophobic site of LsrK and their functional evaluation” (Frontiers in Chemistry, 2023).
Read-outs that look alike come from different tables or passages of the source.

Experiments:
[1] = molecular target: LsrK (Salmonella typhimurium, UniProt Q8ZKQ6); test: LsrK inhibition assay (Kinase-Glo luminescence); type: biochemical; conditions: mean ± SD, n = 3; for Inhibition (%): Supplementary Table 1, 200 uM compound, * = colour of the compound interferes with luminescence
Method: To express LsrK with a 6 × His-tag at the C-terminus, the LsrK encoding gene of Salmonella typhimurium was amplified using primers carrying restriction endonuclease sites BamHI and XhoI. The amplified product was cloned into the expression vector pET-28a with a C-terminal 6 × His-tag and transfected into E. coli BL21 (DE3).
This assay was performed as previously described ([Gatta et al., 2019]), and the conditions were optimized. […] 74 purchased compounds were dissolved in dimethyl sulfoxide (20% v/v DMSO in reaction buffer) at a concentration of 2 mM. Briefly, 10 μL DPD, 10 μL LsrK, and 5 μL compound were added to a 96-well plate, and 25 μL ATP or 25 μL reaction buffer was added after 30 min incubation. The plate was incubated for 10 min at 37°C, then 50 μL of kit reagent was added, and the plate was incubated at 37°C for 15 min. The luminescence signal was measured using an Enspire 2300 microplate reader (PerkinElmer). Dose-response tests were carried out to verify the activity of hits chosen by primary screening. (200 μM–6.25 µM) ([Medarametla et al., 2018]). The inhibition percentage of each tested compound was determined as previously described and IC50 was calculated using four logistic parameters.

[2] = tested on: AI-2-mediated QS (lsr promoter luminescence, reporter strain WHQ02); test: Cell-based AI-2-mediated QS interference assay; set-up: species or system E. coli; conditions: Escherichia coli; cell-based QS interference assay, WHQ02; mean ± SD, n = 3
Excerpt: All chemicals were purchased from Sigma-Aldrich (St. Louis, MO, United States) unless otherwise stated. DPD was purchased from the […] ZZBIO Co., LTD. (Shanghai, China). The Kinase-Glo Max Luminescent Kinase Assay Kit was purchased from Promega (Madison, WI, United States). NTA sensor chips were purchased from GE Healthcare (Chicago, IL, United States). All compounds used as potential inhibitors of LsrK were purchased from Topscience Biotechnology Co. Ltd. (Shanghai, China). The QS reporter strain WHQ02 (E. coli BL21 ΔTolC pWHQ01) was donated by Huiqi Wen (Institute of Microbiology and Epidemiology, Academy of Military Sciences, Beijing, China). The plasmid pWHQ01 was constructed by cloning the lsr promoter and the luxCDABE luminescent gene. BamHI and XhoI were purchased from New England Biolabs (Ipswich, MA, United States). pET-28a was purchased from Novagen (Madison, WI, United States). Escherichia coli BL21 (DE3) cells were purchased from TransGen Biotech Co., LTD. (Beijing, China). A Ni-NTA column was purchased from Sangon Biotech (Shanghai, China). Sodium dodecyl sulfate-polyacrylamide gel electrophoresis (SDS-PAGE) and the Bradford Protein Assay Kit were purchased from Thermo Fisher Scientific (Waltham, MA, United States).
WHQ02 cultured overnight were diluted 1:100 in fresh LB supplemented with 100 μg/mL ampicillin and grown at 30°C and until the logarithmic phase (OD600 = 0.4–0.6). The bacterial culture was centrifuged at 4,000 × g for 5 min, and the pellet was resuspended in fresh LB medium to prepare a suspension of 2 McFarland standard and added to the 96-well plate. In the experimental group, 74 compounds (final concentrations ranging from 100 to 3.125 μM) were added to reach a total volume of 100 µL. In addition, 100 µL LB medium with an equal volume of DMSO (negative control) or 100 µL LB supplemented with 2% glucose and the same volume of DMSO (positive control) were added. Bacteria was cultured at 37°C with shaking for 3 h. The […] of WHQ02 is directly regulated by the lsr promoter, reflecting the strength of QS. The luminescence and OD600 were measured using an Enspire 2300 microplate reader (Perkin Elmer). To further study the effect of compounds on bacterial growth, overnight cultured WHQ02 was diluted 1:1,000 with LB medium and added to 96 well plate. Then, the compounds were added to a 96-well plate (final concentration: 100 µM) and diluted in a gradient. The same volume of DMSO was added to the control group. The plates were incubated at 37°C for 18 h. OD600 values were recorded using an Enspire 2300 microplate reader. The experiment was performed in triplicate.

[3] = tested on: LsrK; conditions: Figure 2, cited from earlier work
[4] = tested on: AI-2 QS; conditions: Figure 2, ref Gatta et al., cited from earlier work

Chain of LsrK (Salmonella typhimurium, UniProt Q8ZKQ6) (Q8ZKQ6 whole entry): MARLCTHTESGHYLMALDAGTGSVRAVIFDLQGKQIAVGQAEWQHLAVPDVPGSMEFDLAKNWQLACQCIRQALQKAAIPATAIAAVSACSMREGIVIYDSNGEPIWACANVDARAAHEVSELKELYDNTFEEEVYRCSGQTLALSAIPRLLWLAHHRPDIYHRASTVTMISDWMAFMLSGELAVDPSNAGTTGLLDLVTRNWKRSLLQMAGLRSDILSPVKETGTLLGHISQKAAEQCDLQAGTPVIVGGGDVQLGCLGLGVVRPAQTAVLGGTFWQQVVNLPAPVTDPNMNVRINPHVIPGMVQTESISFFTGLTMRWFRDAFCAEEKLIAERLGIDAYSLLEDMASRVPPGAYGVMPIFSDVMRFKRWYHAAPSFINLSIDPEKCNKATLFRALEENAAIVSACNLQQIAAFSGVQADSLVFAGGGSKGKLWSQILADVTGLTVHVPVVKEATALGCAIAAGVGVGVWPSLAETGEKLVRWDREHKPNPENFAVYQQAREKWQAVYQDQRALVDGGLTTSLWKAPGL

Question: With Cc1ccc(C(=O)O)cc1NC(=O)c1nn2cccnc2c1Cl [Y502-2013] as the compound, how does the IC50 ([1]; 100 μM ATP, read-out: IC50B) read?
Answer: 140 ± 5.54 µM

Question: And the inhibition at 200 µM ([1]; Table 1, hits at 200 μM with 100 μM ATP)?
Answer: 69.1 ± 8.64%

Question: What about the IC50 [2] of the same compound?
Answer: > 100 µM

Question: Which “Inhibition (%)” value ([1]; 100 μM ATP) does the source give for O=C(NC(Cc1c[nH]c2ccccc12)C(=O)O)c1ccccc1Cl (centres unmarked) [Z85881721] here?
Answer: 10.12 ± 8.78%

Question: For O=C(O)CCn1c(=O)[nH]c(=O)c2ccccc21 [Z166653136], which “Inhibition (%)” value ([1]; 100 μM ATP) is on record?
Answer: 0%

Question: With CN(C)C(=O)C1CCCN1Cc1nc2sc(-c3ccccc3)cc2c(=O)[nH]1 (centres unmarked) [Z196022762] as the compound, how does the “Inhibition (%)” value ([1]; 100 μM ATP) read?
Answer: 57.11 ± 2.22%

Question: Which “Inhibition (%)” value ([1]; 100 μM ATP) does the source give for CC(C)c1ccc2nc(Cc3cccc(C(N)=O)c3)[nH]c(=O)c2c1 [Z951211480] here?
Answer: 0%

Question: For Cc1ccc(Cl)c(Nc2ccccc2C(=O)O)c1Cl [compound 1], which IC50 ([3]; ref Medarametla et al., 2018) is on record?
Answer: 178 µM

Question: What does the source list for O=C(O)CC(=O)Nc1ccc2nc(N(Cc3ccccc3)C(=O)c3cc(Br)c(Br)[nH]3)sc2c1 [compound 2]?
Answer: IC50 [4]; 2020: 17 µM; IC50 ([3]; ref Gatta et al., 2020): 15 ± 1 µM

Question: For O=C(O)C(=O)Nc1nc2ccc(NC(=O)c3cc(Br)c(Br)[nH]3)cc2s1 [compound 3], which IC50 [4]; 2020 is on record?
Answer: 0.6 ± 0.1 µM

Question: What about the IC50 ([3]; ref Gatta et al., 2020) of the same compound?
Answer: 18 ± 2 µM

Question: Which results are given for C[C@]1(OC(=O)/C=C/c2ccccc2)C[C@@H](O)[C@]2(O)C=CO[C@@H](O[C@@H]3O[C@H](CO)[C@@H](O)[C@H](O)[C@H]3O)[C@@H]21 [compound 4, harpagoside]?
Answer: IC50 [4]; 2019: 14 µM; IC50 ([3]; ref Gatta et al., 2019): 10 µM

Question: With O=C1C=CC(=C(c2ccc(O)cc2)c2ccc(O)cc2)C=C1 [compound 5, rosolic acid] as the compound, how does the IC50 [4]; 2019 read?
Answer: 11 µM

Question: And the IC50 ([3]; ref Gatta et al., 2019)?
Answer: 1 µM

Question: Which IC50 ([3]; ref Stotani et al., 2019) does the source give for Cn1nc(-c2ccccc2)cc1C1COC2(CCCCC2)O1 (centres unmarked) [compound 6] here?
Answer: 119 µM
